The text below walks through data of PubChem BioAssay AID504328 (The Scripps Research Institute Molecular Screening Center, 2011).

For orientation: EC50 means the midpoint of the concentration-response curve.

The structures appear in SMILES notation. Calls of active or inactive are those of the source.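 Rule for the calls: active = EC50 at or below 10 µM; inactive = EC50 above 10 µM.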

The experiment addresses Caspase-3 (Homo sapiens) (UniProt P42574). Kind of experiment: activators of human procaspase-3 D3A mutant – biochemical, absorbance, PC-3 D3A mutant, counter-screen for dual procaspase-3/7 activator project, dose response (AID 504328). The note with it: recombinant PC-3 D3A, Ac-DEVD-pNA absorbance 405 nm.

Sequence of Caspase-3 (Homo sapiens) (P42574 whole entry D9A/D28A/D175A): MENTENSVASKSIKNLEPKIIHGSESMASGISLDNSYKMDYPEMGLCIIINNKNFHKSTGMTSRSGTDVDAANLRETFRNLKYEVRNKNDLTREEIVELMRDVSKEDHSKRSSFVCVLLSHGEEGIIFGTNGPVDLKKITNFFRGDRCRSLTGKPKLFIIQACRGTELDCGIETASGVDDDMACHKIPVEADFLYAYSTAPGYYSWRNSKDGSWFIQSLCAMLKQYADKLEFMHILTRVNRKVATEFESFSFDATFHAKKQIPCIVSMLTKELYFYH

Take `CCOc1ccc(N=CC2=C(O)CC(c3ccco3)CC2=O)cc1` (stereo unspecified): the EC50 is > 85.3 µM (inactive).
